Source: patent US6737383B1, “Herbicidal oxadiazolidines” (priority 1999, dated 2004)

Columns and labels:
bedstraw = assay: Test B pre/postemergence bedstraw; format: in vivo, Galium aparine
Method in brief: (§1)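 Response is a visual 0-to-10 score relative to untreated plants, where 0 means no effect and 10 means complete control, taken twelve to sixteen days after application. Treatments went onto soil at planting and onto foliage of 1- to 4-leaf plants, using a surfactant-containing non-phytotoxic solvent.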

surinam grass = assay: Test B pre/postemergence surinam grass; format: in vivo, Brachiaria decumbens
Method in brief: as §1

cocklebur = assay: Test B pre/postemergence cocklebur; format: in vivo, Xanthium strumarium
Method in brief: as §1

corn = assay: Test B pre/postemergence corn; format: in vivo, Zea mays
Method in brief: as §1

giant foxtail = assay: Test B pre/postemergence giant foxtail; format: in vivo, Setaria faberii
Method in brief: as §1

pigweed = assay: Test B pre/postemergence pigweed; format: in vivo, Amaranthus retroflexus
Method in brief: as §1

rape = assay: Test B pre/postemergence rape; format: in vivo, Brassica napus
Method in brief: as §1

soybean = assay: Test B pre/postemergence soybean; format: in vivo, Glycine max
Method in brief: as §1

sugar beet = assay: Test B pre/postemergence sugar beet; format: in vivo, Beta vulgaris
Method in brief: as §1

velvetleaf = assay: Test B pre/postemergence velvetleaf; format: in vivo, Abutilon theophrasti
Method in brief: as §1

wheat = assay: Test B pre/postemergence wheat; format: in vivo, Triticum aestivum
Method in brief: as §1

wild oat = assay: Test B pre/postemergence wild oat; format: in vivo, Avena fatua
Method in brief: as §1

purple nutsedge = assay: Test B pre/postemergence purple nutsedge; format: in vivo, Cyperus rotundus
Method in brief: as §1

rice = assay: Test B flood test rice; format: in vivo, Oryza sativa
Method in brief: (§2)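 Read-out is a visual response score from 0 (no effect) to 10 (complete control), assigned by comparison with untreated controls. Treatment was applied at the 2-leaf stage, and plants stayed in the greenhouse for twelve to sixteen days before scoring.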

smallflower flatsedge = assay: Test B flood test smallflower flatsedge; format: in vivo, Cyperus difformis
Method in brief: as §2

duck salad = assay: Test B flood test duck salad; format: in vivo, Heteranthera limosa
Method in brief: as §2

[1] = Postemergence, Rate 62 g/ha, scale 0 to 10, 0 is no effect, 10 is complete control
[2] = Preemergence, Rate 62 g/ha, scale 0 to 10, 0 is no effect, 10 is complete control
[3] = Preemergence, Rate 125 g/ha, scale 0 to 10 (0 no effect, 10 complete control)
[4] = Preemergence, Rate 250 g/ha, scale of 0 to 10 where 0 is no effect and 10 is complete control
[5] = Preemergence, Rate 500 g/ha, scale 0 (no effect) to 10 (complete control)
[6] = Rate 125 g/ha, Postemergence, scale 0 to 10, 0 no effect, 10 complete control
[7] = Postemergence, Rate 250 g/ha, scale 0 to 10, 0 no effect, 10 complete control
[8] = Rate 500 g/ha, Postemergence, 0 to 10 scale (0 no effect, 10 complete control)
[9] = Rate 125 g/ha, Postemergence section (flood test species), scale 0 to 10, 0 no effect, 10 complete control
[10] = Rate 500 g/ha, Postemergence section of Table B, 0 to 10 scale (0 no effect, 10 complete control)
[11] = flood test, listed under Postemergence, Rate 250 g/ha, scale 0 to 10, 0 no effect, 10 complete control

CCc1ccccc1-n1c(=O)on(C(=O)N(c2ccc(F)cc2F)C(C)C)c1=O [Compound 45]
Bedstraw plant response rating (bedstraw; [1]): 3 | Plant response rating, Bedstraw (bedstraw; [2]): 0 | Plant response rating, Bedstraw (bedstraw; [3]): 0 | Plant response rating, Bedstraw (bedstraw; [4]): 0 | Bedstraw plant response rating (bedstraw; [5]): 0 | Bedstraw plant response rating (bedstraw; [6]): 5 | B. signalgrass plant response rating (surinam grass; [1]): 0 | B. signalgrass plant response rating (surinam grass; [7]): 0 | Plant response rating, B. signalgrass (surinam grass; [2]): 0 | Plant response rating, B. signalgrass (surinam grass; [3]): 2 | Plant response rating, B. signalgrass (surinam grass; [4]): 4 | B. signalgrass plant response rating (surinam grass; [5]): 9 | B. signalgrass plant response rating (surinam grass; [6]): 0 | B. signalgrass plant response rating (surinam grass; [8]): 2 | Cocklebur plant response rating (cocklebur; [1]): 0 | Cocklebur plant response rating (cocklebur; [7]): 2 | Plant response rating, Cocklebur (cocklebur; [2]): 0 | Plant response rating, Cocklebur (cocklebur; [3]): 0 | Plant response rating, Cocklebur (cocklebur; [4]): 0 | Cocklebur plant response rating (cocklebur; [5]): 0 | Cocklebur plant response rating (cocklebur; [6]): 1 | Cocklebur plant response rating (cocklebur; [8]): 5 | Corn plant response rating (corn; [1]): 0 | Corn plant response rating (corn; [7]): 0 | Plant response rating, Corn (corn; [2]): 0 | Plant response rating, Corn (corn; [3]): 0 | Plant response rating, Corn (corn; [4]): 0 | Corn plant response rating (corn; [5]): 1 | Corn plant response rating (corn; [6]): 0 | Corn plant response rating (corn; [8]): 0 | Giant foxtail plant response rating (giant foxtail; [1]): 0 | Giant foxtail plant response rating (giant foxtail; [7]): 9 | Plant response rating, Giant foxtail (giant foxtail; [2]): 7 | Plant response rating, Giant foxtail (giant foxtail; [3]): 10 | Plant response rating, Giant foxtail (giant foxtail; [4]): 10 | Giant foxtail plant response rating (giant foxtail; [5]): 10 | Giant foxtail plant response rating (giant foxtail; [6]): 0 | Giant foxtail plant response rating (giant foxtail; [8]): 9 | Redroot pigweed plant response rating (pigweed; [1]): 0 | Redroot pigweed plant response rating (pigweed; [7]): 0 | Plant response rating, Redroot pigweed (pigweed; [2]): 0 | Plant response rating, Redroot pigweed (pigweed; [3]): 0 | Plant response rating, Redroot pigweed (pigweed; [4]): 8 | Redroot pigweed plant response rating (pigweed; [5]): 8 | Redroot pigweed plant response rating (pigweed; [6]): 0 | Redroot pigweed plant response rating (pigweed; [8]): 0 | Rape plant response rating (rape; [1]): 0 | Rape plant response rating (rape; [7]): 0 | Plant response rating, Rape (rape; [2]): 0 | Plant response rating, Rape (rape; [3]): 0 | Plant response rating, Rape (rape; [4]): 0 | Rape plant response rating (rape; [5]): 0 | Rape plant response rating (rape; [6]): 0 | Rape plant response rating (rape; [8]): 0 | Soybean plant response rating (soybean; [1]): 1 | Soybean plant response rating (soybean; [7]): 1 | Plant response rating, Soybean (soybean; [2]): 0 | Plant response rating, Soybean (soybean; [3]): 0 | Plant response rating, Soybean (soybean; [4]): 0 | Soybean plant response rating (soybean; [5]): 3 | Soybean plant response rating (soybean; [6]): 1 | Sugarbeets plant response rating (sugar beet; [1]): 0 | Sugarbeets plant response rating (sugar beet; [7]): 1 | Plant response rating, Sugarbeets (sugar beet; [2]): 0 | Plant response rating, Sugarbeets (sugar beet; [3]): 0 | Plant response rating, Sugarbeets (sugar beet; [4]): 7 | Sugarbeets plant response rating (sugar beet; [5]): 8 | Sugarbeets plant response rating (sugar beet; [6]): 0 | Velvetleaf plant response rating (velvetleaf; [1]): 0 | Velvetleaf plant response rating (velvetleaf; [7]): 0 | Plant response rating, Velvetleaf (velvetleaf; [2]): 0 | Plant response rating, Velvetleaf (velvetleaf; [3]): 0 | Plant response rating, Velvetleaf (velvetleaf; [4]): 0 | Velvetleaf plant response rating (velvetleaf; [5]): 3 | Velvetleaf plant response rating (velvetleaf; [6]): 0 | Wheat plant response rating (wheat; [1]): 0 | Wheat plant response rating (wheat; [7]): 0 | Plant response rating, Wheat (wheat; [2]): 0 | Plant response rating, Wheat (wheat; [3]): 0 | Plant response rating, Wheat (wheat; [4]): 0 | Wheat plant response rating (wheat; [5]): 0 | Wheat plant response rating (wheat; [6]): 0 | Wild oats plant response rating (wild oat; [1]): 0 | Wild oats plant response rating (wild oat; [7]): 0 | Plant response rating, Wild oats (wild oat; [3]): 0 | Plant response rating, Wild oats (wild oat; [4]): 0 | Wild oats plant response rating (wild oat; [5]): 0 | Wild oats plant response rating (wild oat; [6]): 0 | Nutsedge plant response rating (purple nutsedge; [1]): 0 | Nutsedge plant response rating (purple nutsedge; [7]): 0 | Plant response rating, Nutsedge (purple nutsedge; [2]): 0 | Plant response rating, Nutsedge (purple nutsedge; [3]): 0 | Plant response rating, Nutsedge (purple nutsedge; [4]): 0 | Nutsedge plant response rating (purple nutsedge; [5]): 0 | Nutsedge plant response rating (purple nutsedge; [6]): 0 | Nutsedge plant response rating (purple nutsedge; [8]): 0 | Rice plant response rating (rice; [1]): 0 | Rice plant response rating (rice; [9]): 0 | Rice plant response rating (rice; [10]): 0 | Rice plant response rating (rice; [11]): 0 | S. Flatsedge plant response rating (smallflower flatsedge; [1]): 0 | S. Flatsedge plant response rating (smallflower flatsedge; [9]): 0 | S. Flatsedge plant response rating (smallflower flatsedge; [11]): 0 | Ducksalad plant response rating (duck salad; [1]): 0 | Ducksalad plant response rating (duck salad; [9]): 0 | Ducksalad plant response rating (duck salad; [10]): 0 | Ducksalad plant response rating (duck salad; [11]): 0
